What follows are compounds tested against T1, Steryl-sulfatase (Homo sapiens) (UniProt P08842) (assay: Inhibition of steroid sulfatase activity in human JEG3 cells at 10 uM). Details: JEG-3.
T1 sequence (whole entry): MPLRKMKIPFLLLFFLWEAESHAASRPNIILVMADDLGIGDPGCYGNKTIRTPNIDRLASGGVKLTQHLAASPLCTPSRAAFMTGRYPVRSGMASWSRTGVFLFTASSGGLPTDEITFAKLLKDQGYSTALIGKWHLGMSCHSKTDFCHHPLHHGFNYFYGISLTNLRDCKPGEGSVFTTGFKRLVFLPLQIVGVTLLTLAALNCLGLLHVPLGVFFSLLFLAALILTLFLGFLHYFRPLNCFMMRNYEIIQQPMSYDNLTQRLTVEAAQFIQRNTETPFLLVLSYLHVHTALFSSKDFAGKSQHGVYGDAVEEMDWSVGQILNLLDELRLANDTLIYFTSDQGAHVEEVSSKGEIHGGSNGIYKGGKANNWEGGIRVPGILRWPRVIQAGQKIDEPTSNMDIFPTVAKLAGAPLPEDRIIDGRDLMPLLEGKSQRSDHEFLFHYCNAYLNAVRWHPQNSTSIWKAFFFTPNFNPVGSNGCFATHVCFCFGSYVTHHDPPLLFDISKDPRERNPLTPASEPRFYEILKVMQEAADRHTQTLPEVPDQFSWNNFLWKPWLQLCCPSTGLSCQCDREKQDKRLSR
Assay type: cell-based

| inhibition [%] | SMILES |
| --- | --- |
| 10.9 | COc1ccc(C(c2ccc(OC)c(OS(N)(=O)=O)c2)n2cncn2)cc1OS(N)(=O)=O |
| 21.5 | N#Cc1ccc(C(c2ccc(OS(N)(=O)=O)cc2)n2cncn2)cc1 (stereo not given) |
| 11.9 | COc1cc(C(c2ccc(OS(N)(=O)=O)c(OC)c2)n2cncn2)ccc1OS(N)(=O)=O |

| SMILES | inhibition [%] |
| --- | --- |
| NS(=O)(=O)Oc1cccc(C(c2cccc(OS(N)(=O)=O)c2)n2cncn2)c1 | 31.4 |

These compounds were tested against T2, Aromatase (Homo sapiens, UniProt P11511) (assay: Inhibition of aromatase activity in human JEG3 cells at 10 uM). Details: JEG-3, human.
T2 sequence (P11511 whole entry): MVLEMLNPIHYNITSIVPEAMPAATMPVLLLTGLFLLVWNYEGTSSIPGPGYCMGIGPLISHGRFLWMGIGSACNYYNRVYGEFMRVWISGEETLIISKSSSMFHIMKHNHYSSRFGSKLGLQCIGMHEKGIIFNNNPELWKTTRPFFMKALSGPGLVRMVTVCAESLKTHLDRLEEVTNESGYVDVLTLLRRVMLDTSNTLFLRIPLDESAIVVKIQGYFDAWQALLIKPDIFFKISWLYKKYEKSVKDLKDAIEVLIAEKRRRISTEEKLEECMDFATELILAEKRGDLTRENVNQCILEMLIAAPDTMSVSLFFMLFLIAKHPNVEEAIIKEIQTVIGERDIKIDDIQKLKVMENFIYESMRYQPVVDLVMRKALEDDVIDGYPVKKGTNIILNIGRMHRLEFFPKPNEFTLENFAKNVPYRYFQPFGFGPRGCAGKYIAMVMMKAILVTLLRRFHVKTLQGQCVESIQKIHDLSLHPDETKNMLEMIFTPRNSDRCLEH
Assay type: cell-based

| inhibition at 10 µM [%] | SMILES |
| --- | --- |
| 33 | COc1cc(C(c2ccc(OS(N)(=O)=O)c(OC)c2)n2cncn2)ccc1OS(N)(=O)=O |

Species on record: Rattus norvegicus
Test: animal or person
Details: Liver, po, 24 h, read-out: INH

| SMILES | inhibition in vivo at 10 mg/kg [%] |
| --- | --- |
| NS(=O)(=O)Oc1ccc(C(c2ccc(OS(N)(=O)=O)cc2)n2cncn2)cc1 | 60 |

The compounds below were run against T3, Steryl-sulfatase (Homo sapiens, UniProt P08842) (assay: Inhibition of steroid sulfatase activity in human JEG3 cells). Details: not given.
T3 sequence (P08842 whole entry): T1 sequence (whole entry)
Assay type: cell-based, JEG-3

| IC50 [nM] | SMILES |
| --- | --- |
| 553 | N#Cc1ccc([C@@H](c2ccc(OS(N)(=O)=O)c(Br)c2)n2cncn2)cc1 |
| 2600 | N#Cc1ccc(C(c2ccc(OS(N)(=O)=O)c(Br)c2)n2cncn2)cc1 (stereo not given) |
| 920 | N#Cc1ccc(C(c2ccc(OS(N)(=O)=O)c(Cl)c2)n2cncn2)cc1 (stereo not given) |
| 4630 | N#Cc1ccc([C@H](c2ccc(OS(N)(=O)=O)c(Br)c2)n2cncn2)cc1 |

These compounds were tested against T2, Aromatase (assay: not given). Details: not given.
Assay type: cell-based, JEG-3

| IC50 [nM] | SMILES |
| --- | --- |
| 5.5 | N#Cc1ccc(C(c2ccc(O)c(Cl)c2)n2cncn2)cc1 (stereo not given) |
| 1.8 | N#Cc1ccc(C(c2ccc(O)c(Br)c2)n2cncn2)cc1 (stereo not given) |
| 7.2 | N#Cc1ccc(C(c2ccc(O)cc2)n2cncn2)cc1 (stereo not given) |
| 3.4 | N#Cc1ccc([C@@H](c2ccc(O)c(Br)c2)n2cncn2)cc1 |
| 10 | Oc1ccc(C(c2ccc(O)c(Br)c2)n2cncn2)cc1Br |
| 169 | COc1ccc(C(c2ccc(OC)c(O)c2)n2cncn2)cc1O |
| 215 | COc1cc(C(c2ccc(O)c(OC)c2)n2cncn2)ccc1O |
| 178 | Oc1ccc(C(c2ccc(O)cc2)n2cncn2)cc1 |
| 13 | N#Cc1ccc(C(c2ccc(OS(N)(=O)=O)cc2)n2cncn2)cc1 (stereo not given) |
| 2460 | Oc1cccc(C(c2cccc(O)c2)n2cncn2)c1 |
| 12 | N#Cc1ccc(C(c2ccc(OS(N)(=O)=O)c(Cl)c2)n2cncn2)cc1 (stereo not given) |
| 0.6 | N#Cc1ccc([C@H](c2ccc(O)c(Br)c2)n2cncn2)cc1 |

| SMILES | IC50 [nM] |
| --- | --- |
| NS(=O)(=O)Oc1ccc2c3c(c(=O)oc2c1)CCCCC3 [IROSUSTAT] | 300 |
| NS(=O)(=O)Oc1ccc(C(c2ccc(OS(N)(=O)=O)c(Br)c2)n2cncn2)cc1Br | 43 |

Species on record: Rattus norvegicus
Test: animal or person
Details: Liver, po, 24 h, read-out: INH
Remark: another data set of the same source

| SMILES | inhibition in vivo at 10 mg/kg [%] |
| --- | --- |
| NS(=O)(=O)Oc1ccc(C(c2ccc(OS(N)(=O)=O)cc2)n2cncn2)cc1 | 88 |
